Assay results from patent US20180099917A1, “REVERSIBLY REDUCIBLE MATERIALS AND USE THEREOF” (University of Kentucky Research Foundation, priority 2016, published 2018).
In brackets after ≈: the same amount, converted by molar mass. Read-outs that look alike come from different tables or passages of the source.

Columns and labels:
[1] = Reduction potentials versus ferrocene (electrochemistry in acetonitrile); assay type: physicochemical; conditions: for First Reduction / Second Reduction: reduction potential versus ferrocene
Excerpt: The reversibly reducible material according to one or more of the embodiments disclosed herein is soluble in at least one solvent for redox flow batteries. Accordingly, also provided herein is a negolyte for use in redox-flow batteries, the negolyte including the reversibly reducible material and a redox flow battery solvent. Such solvents include, but are not limited to, acetonitrile, propylene glycol, propylene carbonate, dimethyl acetamide, and dimethyl formamide. […] In some embodiments, the negolyte also includes an electrolyte. Suitable electrolytes include, but are not limited to, tetraalkylammonium hexafluorophosphate, perchlorate, tetrafluoroborate, triflate, perfluorobutylsulfonate, lithium salts thereof (e.g., lithium hexafluorophosphate or perchlorate), other organic-soluble materials, any other suitable electrolyte, or a combination thereof. Other suitable electrolytes include, but are not limited to, sulfuric acid and/or potassium hydroxide. An example of the electrochemical trace, with internal ferrocene standard in acetonitrile using tetrabutylammonium hexafluorophosphate electrolyte, is shown in FIG. 1. Although discussed above with regard to non-aqueous redox flow batteries, as will be appreciated by those skilled in the art the instant disclosure is not so limited and may include aqueous redox flow batteries as well.
(§1) Following the formation of reversibly reducible materials as discussed above, various compounds were tested for structure, solubility, and reduction potentials. The results are provided in Table 2 below, with solubility shown in acetonitrile at 23° C. and reduction potentials shown versus ferrocene.

[2] = Solubility in acetonitrile; assay type: physicochemical
Description: In some embodiments, modifying the Z group in formula I above adjusts the solubility of the resulting compound. For example, in one embodiment, compound number 1 has a solubility of 0.1 M in acetonitrile (electrolyte solution), while compound number 2 has a solubility of 0.3 M in acetonitrile.
as §1

[3] = acetonitrile (electrolyte solution), organic solvent or mixture, read-out: solubility in acetonitrile
[4] = organic solvent or mixture, in acetonitrile at 23° C., read-out: Solubility

**Q.** For COCCOCCOCCNC1=CC(=O)c2ccccc2C1=O, which “First Reduction” value [1] is on record?
**A.** Its value is −1.295 V.

**Q.** And the “Second Reduction” value [1]?
**A.** Its value is −1.784 V.

**Q.** And the solubility ([2]; in acetonitrile at 23° C.)?
**A.** Its solubility is “Miscible”.

**Q.** What does the source list for COCCN(CCOC)C1=CC(=O)c2ccccc2C1=O?
**A.** First Reduction [1]: −1.295 V; Second Reduction [1]: -1.67 V; solubility ([2]; in acetonitrile at 23° C.): Miscible

**Q.** With CC(C)CNC1=CC(=O)c2ccccc2C1=O [Compound 1] as the compound, how does the “First Reduction” value [1] read?
**A.** The value was −1.266 V.

**Q.** What about the “Second Reduction” value [1] of the same compound?
**A.** Its value is −1.841 V.

**Q.** What about the solubility [2, 3] of the same compound?
**A.** The solubility was 100 mM (≈ 22.9 mg/mL).

**Q.** What about the solubility [2, 4] of the same compound?
**A.** Its solubility is 100 mM (≈ 22.9 mg/mL).

**Q.** What does the source list for COCCNC1=CC(=O)c2ccccc2C1=O [Compound 2]?
**A.** First Reduction [1]: −1.316 V; Second Reduction [1]: −1.798 V; solubility [2, 3]: 300 mM (≈ 69.4 mg/mL); solubility [2, 4]: 300 mM (≈ 69.4 mg/mL)

**Q.** With COCCNC1=C(Cl)C(=O)c2ccccc2C1=O [Compound 10] as the compound, how does the “solubility compared to compound 2” value ([2]; Cl at the R5 position versus identical compound without Cl) read?
**A.** The value was “increases the solubility”.

**Q.** What does the source list for CCN(CC)C1=CC(=O)c2ccccc2C1=O [Compound 11]?
**A.** First Reduction [1]: −1.362 V; Second Reduction [1]: −1.686 V; electrochemistry properties ([1]; second group on the N atom): excellent electrochemistry properties; solubility [2, 3]: 700 mM (≈ 160 mg/mL); solubility [2, 4]: 700 mM (≈ 160 mg/mL)
